The values below are quoted from earlier work in US20150297661A1, “ANALGESIC COMPOSITIONS AND METHODS OF USE” (priority 2014, published 2015).

Turning to `CCOC(=O)c1ccc(N)cc1` [Benzocaine], the duration of effect (after application to skin or mucosal surface) was 30 to 60 min. For the same compound, the “time to peak effect after application” value (in contact with skin or mucosal surface) was no more than 1 min.
